# Reference: patent publication US11033538B2, “Dosing regimens for the treatment of lysosomal storage diseases using pharmacological chaperones” (Amicus Therapeutics, Inc., priority 2007, dated 2021)
# Several values for one entry are separate records, joined by “and”; a condition that tells them apart may be missing. Equal values may be shown once. Read-outs that look alike come from different tables or passages of the source.
# How the values were obtained:
# healthy male volunteers = test system: healthy male volunteers
# Protocol: Safety was determined by evaluating vital signs, laboratory parameters (serum chemistry, hematology, and urinalysis), ECGs, physical examination and by recording adverse events during the Treatment Period.
# Adverse events were coded using the MedDRA version 7.0 dictionary and summarized by treatment for the number of subjects reporting the adverse event and the number of adverse events reported. A by-subject adverse event data listing including verbatim term, coded term, treatment group, severity, and relationship to treatment was provided. Concomitant medications and medical history were listed by treatment.
# [1] = test system: patients with Fabry disease; assay: Example 15, renal function assessment; assay type: in vivo, human
# Protocol: Annualized rates of change (mL/min/1.73 m^2/year) were calculated using Chronic Kidney Disease Epidemiology Collaboration-eGFRCKD-EPI) and measured iohexol clearance-mGFRiohexol).
# GL-3 [2] = assay: Example 11, GL-3 levels by LC-MS/MS in hR301Q GLA Tg/KO mice, daily vs less frequent dosing; assay type: in vivo; conditions: 300 mg/kg in drinking water, 4 weeks; skin, heart, kidney, plasma
# Protocol: Lysates were prepared from skin, heart, kidney and plasma. GL-3 levels were measured by LC-MS/MS (expressed in mg/g tissue weight or mg/mL plasma). […] Each bar represents the mean±SEM of 10-16 mice/group.
# α-GAL = assay: Example 8, α-GAL activity in cell lines expressing Fabry missense mutations; assay type: cell-based
# Text: Cell lines were constructed to express one of 75 Fabry missense mutations. […] 20 of the 75 cell lines expressed a missense mutation corresponding to later-onset Fabry disease.
# lyso-Gb3 = assay: Example 15, plasma lyso-Gb3; assay type: in vivo, human
# Protocol: Plasma lyso-Gb3 and 24-hour urine GL-3 were analyzed by liquid chromatography-mass-spectroscopy using a novel stable isotope-labeled internal standard, 13C6-lyso-Gb3 (lower-limit-of-quantification: 0.200 ng/mL, 0.254 nmol/L).
# Fabry patients = assay: Example 6, renal function (eGFR); assay type: in vivo, human; conditions: good responders
# Protocol: Renal function was evaluated using glomerular filtration rate (GFR).
# Renal function was measured using glomerular filtration rate (GFR) (MDRD equation was used to estimate GFR using serum creatinine adjusted for age, gender and race). Approximately half of all Fabry patients have an abnormally low GFR (<90 ml/min/1.73 m^2). […] As shown in FIG. 17A-B, the good responders maintained a mean eGFR within the normal eGFR range of 90-120 ml/min/1.73 m^2 during the entire treatment procedure (FIG. 17A), while the predicted mean eGFR level of untreated individual is projected to continue declining below 90 ml/min/1.73 m^2 (FIG. 17B).
# GL-3 [3] = assay: Example 15, podocyte GL-3 by electron microscopy stereology; assay type: in vivo, human; conditions: after 6 months of DGJ
# Text: This decrease correlated with % reduction in podocyte GL-3 volume (r=0.79, p=0.02). […] The sensitive quantitative method used can assess treatment efficacy for this important cell type over a relatively short period of time. This method is also more sensitive than the methods described above in the kidney analysis of Example 5 (as shown in FIG. 14), as well as the methods earlier in this example relating to qualitative assessment of podocyte GL-3.
# GL-3 [4] = assay: Example 6, kidney biopsy GL-3 by mass spectroscopy; assay type: in vivo, human
# Protocol: (§1) Four male patients received a single 150 mg Q.O.D for 12 weeks (Group B); while five male patients received 150 mg Q.O.D. for 24 weeks (Group C). Finally nine female patients were randomized to receive one of three dosages: 50, 150 or 250 mg Q.O.D for 12 weeks (Group D) (FIG. 8).
# (§2) Kidney biopsies were performed at baseline, 12 weeks and 24 weeks post-treatment and evaluated for GL-3 deposits in various renal cells. GL-3 presence in the tissue was examined histologically as well as through the use of mass spectroscopy. Light microscopic analysis of kidney biopsies was performed, wherein the accumulation of GL-3 in the tissue was classified in a manner similar to the classification analysis performed in Kidney International, Vol. 62 (2002), pp. 1933-1946 which is hereby incorporated by reference. Cells were classified as containing no GL-3 accumulation (“0”); mild GL-3 accumulation (“1”); moderate GL-3 accumulation (“2”); or severe GL-3 accumulation (“3”).
# (§3) Kidney GL-3 levels were assessed using histological and mass spectroscopic analysis. Kidney biopsies were examined in four of the “good” responders, two of the “moderate” responders, and two of the “non” responders. Accumulation of GL-3 was examined in three different kidney cell types: interstitial capillaries, distal tubules, and podocytes.
# GL-3 [5] = assay: Example 6, kidney biopsy GL-3 histology; assay type: in vivo, human
# Protocol: as §1, §2, §3
# [6] = Phase Ib twice-daily dose study of DGJ in healthy volunteers, plasma and urine pharmacokinetics; assay type: in vivo, human
# Protocol: Subjects were housed in the treatment facility from 14 hours prior to dosing until 24 hours after dosing. Meals were controlled by schedule and subjects remained abulatory for 4 hours post drug administration
# Blood samples (10 mL each) were collected in blood collection tubes containing EDTA before dosing and at the following times thereafter: 0.25, 0.5, 0.75, 1, 1.5, 2, 3, 4, 5, 6, 7, 8, 9, 10, 11 and 12 hours. Blood samples were cooled in an ice bath and centrifuged under refrigeration as soon as possible. Plasma samples were divided into two aliquots and stored at […]. pending assay. At the end of the study, all samples were transferred to MDS Pharma Services Analytical Laboratories (Lincoln) for analysis.
# [7] = up to 24 months of DGJ, mITT-suitable
# [8] = human, plasma, oral, 50 mg, 50 mg bid, Day 1
# [9] = human, plasma, oral, 50 mg, 50 mg bid, Day 7
# [10] = human, plasma, oral, 150 mg, 150 mg bid, Day 1
# [11] = human, plasma, po, 150 mg, oral 150 mg DGJ hydrochloride
smiles,measurement,setting,value
"OC[C@H]1NC[C@H](O)[C@@H](O)[C@H]1O [DGJ, (2R,3S,4R,5S)-2-(hydroxymethyl) piperdine-3,4,5-triol]",safety and tolerability,"healthy male volunteers; 50 mg b.i.d. and 150 mg b.i.d., 7 days",safe and well tolerated
same,adverse events (AEs),healthy male volunteers; 50 mg b.i.d. or 150 mg b.i.d.,no subject presented with AEs
same,tolerability,healthy male volunteers; 50 and 150 mg twice daily for 7 days,generally well-tolerated at all doses
same,"vital sign, ECG, physical examination",healthy male volunteers; 50 or 150 mg b.i.d.,"No clinically relevant abnormality occurred in any vital sign, ECG, or physical examination parameter"
same,serious adverse events,healthy male volunteers; any treatment group,no serious adverse events
same,"eGFRCKD-EPI or mGFRIohexol changes, DGJ vs placebo","[1]; baseline to month 6, mITT-suitable",no statistically significant differences
same,annualized change in eGFRCKD-EPI (±SEM),[1]; [7],−0.30±6.6 mL/min/1.73 m^2
same,annualized change in mGFRiohexol (±SEM),[1]; [7],−1.51±1.33 mL/min/1.73 m^2
same,"GL-3 levels by LC-MS/MS, less frequent (4 days on/3 days off) vs daily dosing",GL-3 [2],greater reduction in GL-3 levels
same,cell lines in which DGJ enhanced α-GAL activity,α-GAL; 47 of the 75 cell lines,63%
same,cell lines with increase in enzymatic activity,"α-GAL; classic Fabry mutations, 34 of 57 cell lines",60%
same,cell lines with increase in α-GAL activity,"α-GAL; later-onset Fabry mutations, 19 of 20 cell lines",95%
same,Mean plasma lyso-Gb3,"lyso-Gb3; after 6 months of DGJ, baseline 118±48, N=8 males, p=0.0004",75 ± 42 nM
same,plasma lyso-Gb3 levels,"lyso-Gb3; six months of DGJ, mITT-suitable, p=0.0033",significant reduction in plasma lyso-Gb3 levels compared to placebo
same,plasma lyso-Gb3,"lyso-Gb3; switching from placebo to DGJ between 6 and 12 months, p<0.0001",significant reduction in plasma lyso-Gb3
same,mean eGFR maintained during the entire treatment,Fabry patients,90-120 ml/min/1.73 m^2
same,"mean±SD V(Inc/PC), GL-3 inclusion volume per podocyte","GL-3 [3]; baseline 2568±1408, N=8 males, p=0.0182",1282±792 μm^3
same,mean podocyte volume,"GL-3 [3]; baseline 6680±2835, p=0.004",3525±2084 μm^3
same,expected good responders with kidney GL-3 decrease of greater than 10%,GL-3 [4]; female,two of the five
same,mean decrease in kidney GL-3 levels (mass spectoanalysis),GL-3 [4]; female expected good responders,20%
same,good responders with kidney GL-3 decrease of greater than 10%,GL-3 [4]; male good responders,3
same,mean decrease in kidney GL-3 levels (mass spectroanalysis),GL-3 [4]; male good responders,28%
same,distal tubule GL-3 (histology),GL-3 [5]; male good responders,three of the good responders experienced a decrease in GL-3
same,interstitial capillary GL-3 (histology),GL-3 [5]; male good responders,one patient displayed a decrease in interstitial capillary GL-3
same,overall GL-3 levels in kidney biopsies,GL-3 [5]; male good responders,two of the good responders showed a decrease in GL-3
same,podocyte GL-3 (histology),GL-3 [5]; male good responders,all four good responders experienced no change
same,overall GL-3 levels in kidney biopsies,GL-3 [5]; male moderate responders,two patients showed a decrease in GL-3 levels
same,overall GL-3 levels in kidney biopsies,GL-3 [5]; male non-responders,One non-responders showed a decrease in GL-3 levels
same,12 h cumulative renal excretion,"[6]; 50 mg bid, Day 1",16% and 16 ± 6%
same,12 h cumulative renal excretion,"[6]; 50 mg bid, Day 7",48% and 48 ± 7%
same,Cmin,"[6]; 50 mg bid, Day 7",0.4 ± 0.03 µM
same,dose dependence of Cmax,[6]; 50 mg to 150 mg,increased in a dose-proportional manner
same,12 h cumulative renal excretion,"[6]; 150 mg bid, Day 1",42% and 42 ± 7%
same,12 h cumulative renal excretion,"[6]; 150 mg bid, Day 7",60% and 60 ± 5%
same,Cmax,"[6]; 150 mg bid, Day 7",10.8 ± 1.4 µM
same,Cmin,"[6]; 150 mg bid, Day 7",1.2 ± 0.1 µM
same,"time of peak concentrations, on average",[6]; all dose levels,approximately 3 hours
same,oral availability,[6]; healthy male volunteers,orally available
same,Cmax,[6]; [8],2.3 ± 0.3 µM
same,Tmax,[6]; [8],2.9 ± 0.4 h
same,Cmax,[6]; [9],3.9 ± 0.5 µM
same,Tmax,[6]; [9],2.5 ± 0.4 h
same,Cmax,[6]; [10],11.3 ± 1.5 µM
same,Tmax,[6]; [10],3.1 ± 0.4 h
same,Tmax,"[6]; human, plasma, oral, 150 mg, 150 mg bid, Day 7",2.9 ± 0.4 h
same,half-life,"[6]; human, plasma, oral, 50 mg bid, Day 1, read-out: t½ (converted)",2.5 h
same,half-life,"[6]; human, plasma, oral, 150 mg bid, Day 1, read-out: t½ (converted)",2.4 h
same,Cmax,[6]; [11],9 µM
same,Tmax,[6]; [11],3 h
same,half-life,"[6]; human, plasma, po, 150 mg, read-out: Half-life (exponential decay) (converted)",3 h
